Values of other authors in US20040241255A1, “Pharmaceutical composition containing valerina officinalis extract” (priority 2001, published 2004).

test system: apnea during NREM sleep in rats; details: injected intraperitoneally

Compound	Suppression of apnea during NREM sleep
OC[C@H]1O[C@@H](n2cnc3c(N[C@H]4CCC[C@@H]4O)ncnc32)[C@H](O)[C@@H]1O (relative stereo) [N-[(1S,trans)-2-hydroxycyclopentyl]-adenosine]	dose-dependent suppression of apnea
C[C@H](Cc1ccccc1)Nc1ncnc2c1ncn2[C@@H]1O[C@H](CO)[C@@H](O)[C@H]1O [phenylisopropyl adenosine]	dose-dependent suppression of apnea
CCNC(=O)C1OC(n2cnc3c(N)nc(NCCc4ccc(CCC(=O)O)cc4)nc32)C(O)C1O.Cl (stereo not drawn) [2-p-(2-carboxyethyl)-phenethyl-amino-5′-N-ethylcarboxamido-adenosine hydrochloride]	dose-dependent suppression of apnea
